The source of these data is paper PMC2358973, “A Cysteine Protease Is Critical for Babesia spp. Transmission in Haemaphysalis Ticks” (PLoS Pathogens, 2008).

This test concerns the target T1, longipain (Haemaphysalis longicornis, UniProt A1IHG0).
T1 construct: gene HlCath; partial coding region (pPICZC) expressed in Pichia pastoris GS115, HiTrap chelating column purified; precursor 341 residues with 17-residue signal peptide
The test is described as follows: inhibition of fluorogenic substrate hydrolysis. Conditions: read-out: Inhibition (%) relative to control / Z-F-R-MCA. It counts as biochemical. The source says: inhibition of fluorogenic substrate hydrolysis on longipain

T1 sequence (A1IHG0 22-341 limits assumed): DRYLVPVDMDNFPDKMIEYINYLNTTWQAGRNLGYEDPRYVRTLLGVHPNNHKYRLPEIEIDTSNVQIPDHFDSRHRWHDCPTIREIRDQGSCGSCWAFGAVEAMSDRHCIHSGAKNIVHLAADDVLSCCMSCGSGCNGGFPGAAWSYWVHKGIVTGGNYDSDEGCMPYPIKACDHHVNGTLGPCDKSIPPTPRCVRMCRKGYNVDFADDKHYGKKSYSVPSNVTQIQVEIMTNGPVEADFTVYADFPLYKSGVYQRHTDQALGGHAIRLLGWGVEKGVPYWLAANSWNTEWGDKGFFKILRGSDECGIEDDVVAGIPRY

For the compound `CC(C)C[C@H](NC(=O)[C@@H]1O[C@H]1C(=O)O)C(=O)NCCCCNC(=N)N` [E-64], the inhibition at 10 µM was found to be 84 ± 0.2%.
